Type in all cases: biochemical
The target of test [1] is T1, MMP-9 of the rat (Rattus norvegicus, UniProt P50282).
T1 construct: purchased R&D Systems 5427-MM
Put plainly: In vitro MMP-9 inhibition test of the rat.

In test [2] the target is T2, MMP-16 (Homo sapiens, UniProt P51512).
T2 construct: purchased R&D Systems 1785-MP
Kind of test: In vitro MMP-16 inhibition test. The source says:
(§1) The activity strength of the compounds according to the invention towards other MMPs (and therefore their selectivity) is likewise ascertained in in vitro inhibition tests. The MMP-mediated amidolytic cleavage of a suitable peptide substrate also leads here to a fluorescent light increase. The signal intensity of the fluorescent light is directly proportional to the enzyme activity. The active concentration of a test compound at which half of the enzyme is inhibited (50% signal intensity of the fluorescent light) is given as IC50 value.
Recombinant MMP-16 (R&D Systems, 1785-MP) is enzymatically activated in accordance with the manufacturer's instructions using recombinant furin (R&D Systems, 1503-SE). 1 μl of the test compound to be analysed (as a solution in DMSO, suitable concentrations e.g. 1 nM to 30 μM) is pipette into 24 μl of activated enzyme (final concentration e.g. 1 nM) in reaction buffer (50 mM Tris/HCl pH 7.5, 10 mM CaCl2, 150 mM NaCl, 0.05% Brij®-35) in a white 384-hole microtiter plate (MTP). The enzymatic reaction is started by adding the intramolecularly quenched substrate Mca-Lys-Pro-Leu-Gly-Leu-Dpa(Dnp)-Ala-Arg-NH2 (final concentration e.g. 5 μM; R&D Systems, ES-010), such that a total test volume of 50 μl results. The progress of the MMP-16 reaction is measured by measuring the fluorescence intensity (excitation 320 nm, emission 410 nm) over a suitable period (e.g. over 120 min at a temperature of 32° C.).
(§2) The IC50 values were determined for racemates and enantiomers from differently generated DMSO stock solutions. Whereas an automatically produced DMSO stock solution from the internal substance logistics was used for racemates by means of a standard method, in the case of enantiomers a freshly produced, manually prepared DMSO stock solution was used in each case for a more precise direct comparison of the enantiomers with one another.

For test [3], the target named is T3, MMP-2 of the mouse (Mus musculus, UniProt P33434).
T3 construct: purchased R&D Systems 924-MP
T3 sequence (P33434 110-662): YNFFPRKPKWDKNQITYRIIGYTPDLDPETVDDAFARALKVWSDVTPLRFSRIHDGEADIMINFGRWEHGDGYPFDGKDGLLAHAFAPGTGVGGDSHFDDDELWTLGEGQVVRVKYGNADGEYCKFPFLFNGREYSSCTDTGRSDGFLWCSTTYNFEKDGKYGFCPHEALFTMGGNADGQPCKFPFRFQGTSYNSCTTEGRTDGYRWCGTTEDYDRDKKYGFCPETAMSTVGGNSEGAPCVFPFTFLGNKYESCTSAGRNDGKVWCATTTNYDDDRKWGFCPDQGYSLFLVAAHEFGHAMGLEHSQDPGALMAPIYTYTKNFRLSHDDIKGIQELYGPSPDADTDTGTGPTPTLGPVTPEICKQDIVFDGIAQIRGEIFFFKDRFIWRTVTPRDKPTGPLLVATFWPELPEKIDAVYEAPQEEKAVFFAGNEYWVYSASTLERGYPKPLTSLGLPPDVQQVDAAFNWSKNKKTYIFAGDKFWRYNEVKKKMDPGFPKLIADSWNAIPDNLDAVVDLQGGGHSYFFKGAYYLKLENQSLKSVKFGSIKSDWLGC
Put plainly: In vitro MMP-2 inhibition test of the mouse.
From the text: as §1
(§3) Recombinant MMP-2 of the mouse (R&D Systems, 924-MP) is chemically activated in accordance with the manufacturer's instructions using APMA. 1 μl of the test compound to be analysed (as a solution in DMSO, suitable concentrations e.g. 1 nM to 30 μM) is pipetted into 24 μl of activated enzyme (final concentration e.g. 0.1 nM) in reaction buffer (50 mM Tris/HCl pH 7.5, 10 mM CaCl2, 150 mM NaCl, 0.05% Brij®-35) in a white 384-hole microtiter plate (MTP). The enzymatic reaction is started by adding the intramolecularly quenched substrate Mca-Pro-Leu-Gly-Leu-Dpa(Dnp)-Ala-Arg-NH2 (final concentration e.g. 10 μM; R&D Systems, ES-001), such that a total test volume of 50 μl results. The progress of the MMP-2 reaction is measured by measuring the fluorescence intensity (excitation 320 nm, emission 410 nm) over a suitable period (e.g. over 120 min at a temperature of 32° C.).
Tables 3A and 3B below give the IC50 values from these tests for the inhibition of rodent MMPs for representative embodiment examples of the present invention and also for two structurally related comparison compounds from the prior art (as racemate and separated enantiomer)→(in part as average values from several independent individual determinations and rounded to two significant places). The IC50 values were determined for racemates and enantiomers from differently generated DMSO stock solutions. Whereas an automatically created DMSO stock solution from the internal substance logistics was used for racemates by means of a standard method, in the case of enantiomers, in each case a freshly produced, manually prepared DMSO stock solution was used for a more precise direct comparison of the enantiomers with one another.

Test [4] deals with T4, MMP-1 (Homo sapiens, UniProt P03956).
T4 construct: purchased R&D Systems 901-MP
T4 sequence (P03956 100-469): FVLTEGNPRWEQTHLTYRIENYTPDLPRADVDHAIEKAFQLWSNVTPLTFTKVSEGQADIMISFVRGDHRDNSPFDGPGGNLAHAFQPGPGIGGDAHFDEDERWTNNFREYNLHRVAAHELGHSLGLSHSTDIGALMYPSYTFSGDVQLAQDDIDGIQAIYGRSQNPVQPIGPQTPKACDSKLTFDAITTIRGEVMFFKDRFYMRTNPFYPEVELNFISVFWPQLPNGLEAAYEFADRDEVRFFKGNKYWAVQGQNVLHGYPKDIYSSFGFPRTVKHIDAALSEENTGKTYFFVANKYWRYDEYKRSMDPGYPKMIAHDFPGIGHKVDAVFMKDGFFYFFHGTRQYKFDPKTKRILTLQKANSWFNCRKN
Kind of test: In vitro MMP-1 inhibition test.
From the text: as §1
as §3, with “MMP-1” for “MMP-2 of the mouse”, “901-MP)” for “924-MP)”, “instructions by” for “instructions”, “2” for “0.1”, “MMP-1” for “MMP-2”
as §2

T2 sequence (P51512 120-607): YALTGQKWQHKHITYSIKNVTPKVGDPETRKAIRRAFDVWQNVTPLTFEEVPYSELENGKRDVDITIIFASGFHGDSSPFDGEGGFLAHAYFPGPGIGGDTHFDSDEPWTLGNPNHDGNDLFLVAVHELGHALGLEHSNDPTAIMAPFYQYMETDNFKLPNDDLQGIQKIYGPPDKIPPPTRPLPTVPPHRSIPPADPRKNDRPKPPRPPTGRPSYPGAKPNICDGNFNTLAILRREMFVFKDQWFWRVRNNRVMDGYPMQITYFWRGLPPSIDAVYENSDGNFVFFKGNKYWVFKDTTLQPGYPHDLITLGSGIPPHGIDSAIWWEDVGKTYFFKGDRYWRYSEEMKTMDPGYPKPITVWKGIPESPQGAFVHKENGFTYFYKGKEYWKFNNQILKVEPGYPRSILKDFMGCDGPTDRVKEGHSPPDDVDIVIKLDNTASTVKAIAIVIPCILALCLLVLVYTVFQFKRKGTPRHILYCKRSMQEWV
T1 sequence (P50282 108-708): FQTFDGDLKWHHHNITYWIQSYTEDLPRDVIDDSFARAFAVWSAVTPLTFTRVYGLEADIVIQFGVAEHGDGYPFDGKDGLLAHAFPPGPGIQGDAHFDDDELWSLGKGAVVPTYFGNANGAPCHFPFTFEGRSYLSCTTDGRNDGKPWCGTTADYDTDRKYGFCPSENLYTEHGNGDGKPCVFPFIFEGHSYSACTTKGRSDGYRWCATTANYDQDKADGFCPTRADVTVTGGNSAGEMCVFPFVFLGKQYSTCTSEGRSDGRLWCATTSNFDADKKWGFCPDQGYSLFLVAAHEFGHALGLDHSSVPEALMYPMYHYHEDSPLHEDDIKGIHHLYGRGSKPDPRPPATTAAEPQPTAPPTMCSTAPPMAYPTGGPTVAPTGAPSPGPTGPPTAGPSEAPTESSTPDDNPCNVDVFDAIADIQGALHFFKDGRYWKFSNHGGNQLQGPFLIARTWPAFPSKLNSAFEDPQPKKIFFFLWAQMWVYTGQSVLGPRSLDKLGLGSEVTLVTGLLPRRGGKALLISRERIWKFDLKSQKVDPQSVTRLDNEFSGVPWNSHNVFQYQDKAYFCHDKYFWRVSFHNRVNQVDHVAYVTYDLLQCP

Consider `O=C(O)[C@H]1[C@H](Cn2nnc3ccccc3c2=O)CC[C@@H]1C(=O)c1ccc(OCc2ccccc2)cc1` [Example 2, (+)-(1S,2S,5R)-2-[4-(Benzyloxy)benzoyl]-5-[(4-oxo-1,2,3-benzotriazin-3(4H)-yl)methyl]cyclopentanecarboxylic acid], for which the half-maximal inhibitory concentration (IC50) in test [1] turned out to be 46.5 nM; in test [2], 78.5 nM; in test [3], 16.5 nM; in test [4], 5.8 µM.
Take `O=C(O)[C@@H]1[C@@H](Cn2nnc3ccccc3c2=O)CC[C@H]1C(=O)c1ccc(-c2ccc(Cl)cc2)cc1` (single isomer, unassigned; enantiomer 2) [Comparative Example A-3, (1RS,2RS,5SR)-2-[(4′-Chlorobiphenyl-4-yl)carbonyl]-5-[(4-oxo-1,2,3-benzotriazin-3(4H)-yl)methyl]cyclopentanecarboxylic acid (enantiomer 2)]: the IC50 is 3.3 nM in test [1], 5.2 nM in test [2], less than 0.61 nM in test [3] and 0.135 µM in test [4].
Consider `CCCCCOc1ccc(C(=O)CC(CCn2nnc3ccccc3c2=O)C(=O)O)cc1` (single isomer, unassigned; enantiomer 1) [Comparative Example B-2, (+)-4-Oxo-2-[2-(4-oxo-1,2,3-benzotriazin-3(4H)-yl)ethyl]-4-[4-(pentyloxy)phenyl]butanoic acid (enantiomer 1)], for which the IC50 in test [1] was 1350 nM; in test [2], 6700 nM; in test [3], 145 nM; in test [4] it was more than 40 µM.
For the compound `CCCCCOc1ccc(C(=O)CC(CCn2nnc3ccccc3c2=O)C(=O)O)cc1` (racemic) [Comparative Example B-1, (+/−)-4-Oxo-2-[2-(4-oxo-1,2,3-benzotriazin-3(4H)-yl)ethyl]-4-[4-(pentyloxy)phenyl]butanoic acid (racemate)], the 50% inhibitory concentration (IC50) in test [1] is 3200 nM; in test [2], 22000 nM; in test [3] it was 610 nM; in test [4] it was more than 40 µM.
On to `O=C(O)[C@H]1[C@H](Cn2nnc3ccccc3c2=O)CC[C@@H]1C(=O)c1ccc(-c2ccc(Cl)cc2)cc1` (racemic) [Comparative Example A-1, (1RS,2RS,5SR)-2-[(4′-chlorobiphenyl-4-yl)carbonyl]-5-[(4-oxo-1,2,3-benzotriazin-3(4H)-yl)methyl]cyclopentanecarboxylic acid (racemate)], for which the half-inhibitory concentration (IC50) came out at 4.6 nM in test [1], 16 nM in test [2], 1.3 nM in test [3] and 0.22 µM in test [4].
As for `O=C(O)[C@H]1[C@H](Cn2nnc3ccccc3c2=O)CC[C@@H]1C(=O)c1ccc(OCc2ccccc2)cc1` (racemic) [Example 1, (+/−)-(1RS,2RS,5SR)-2-[4-(Benzyloxy)benzoyl]-5-[(4-oxo-1,2,3-benzotriazin-3(4H)-yl)methyl]cyclopentanecarboxylic acid (racemate)], the IC50 was found to be 110 nM in test [1], 130 nM in test [2], 33 nM in test [3] and 12 µM in test [4].

The record behind these values is patent US20170119776A1, “CHIRAL 2,5-DISUBSTITUTED CYCLOPENTANECARBOXYLIC ACID DERIVATIVES AND USE THEREOF” (BAYER PHARMA AKTIENGESELLSCHAFT, priority 2014, published 2017).
